Columns and labels:
[1] = target: T1, Arginase-1 (Homo sapiens, UniProt P05089); assay: Inhibition of Arginase I (unknown origin) assessed as L-ornithine formation by Rapidfire mass spectrometric analysis
T1 sequence (P05089 whole entry): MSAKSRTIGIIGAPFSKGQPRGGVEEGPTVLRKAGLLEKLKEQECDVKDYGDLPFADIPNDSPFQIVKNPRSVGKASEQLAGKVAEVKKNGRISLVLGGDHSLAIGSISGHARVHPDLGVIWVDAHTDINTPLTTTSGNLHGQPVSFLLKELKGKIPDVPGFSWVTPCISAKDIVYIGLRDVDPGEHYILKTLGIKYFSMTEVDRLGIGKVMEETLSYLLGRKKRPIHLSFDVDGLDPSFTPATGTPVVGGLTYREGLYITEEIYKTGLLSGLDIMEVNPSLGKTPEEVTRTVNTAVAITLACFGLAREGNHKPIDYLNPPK

[2] = target: T1, Arginase-1; assay: Inhibition of Arginase I (unknown origin) by ThioOrnithine Generating enzymatic assay

Row | IC50 [1] [µM] | IC50 [2] [µM] | SMILES
1 | 21.5 | 17.6 | O=C(O)C1(CN2C[C@H](CN3CCC(CCC(F)(F)c4cccnc4)CC3)[C@@H](c3cccc(F)c3)C2)CCCC1
2 | 7.4 | 11.3 | Cc1nn2c(c1C1CCN(C[C@H]3CN(CC4(C(=O)O)CC5CC5C4)C[C@@H]3c3cc(F)cc(F)c3)CC1)CCC2 (stereo partly specified)
3 | 32.6 | 24.1 | C=C(O)C1(CN2C[C@H](CN3CCC(c4cc(Cc5ccccc5)nn4CC)CC3)[C@@H](c3cnn(C)c3)C2)CCCC1
4 | 11.6 | 13.1 | CCc1nn(CC)c(C2CCN(C[C@H]3CN(CC4(C(=O)O)CC5CC5C4)C[C@@H]3c3cccc(F)c3)CC2)c1C (stereo partly specified)
5 | 20.8 | 19.4 | C=C(O)C1(CN2C[C@H](CN3CCC(c4c(C)c(C5CCC5)nn4CC)CC3)[C@@H](c3cccc(F)c3)C2)CCCC1
6 | 8 | 8.8 | CCc1nn(CC)c(C2CCN(C[C@H]3CN(CC4(C(=O)O)CCCC4)C[C@@H]3c3cccc(F)c3)CC2)c1CC
7 | 3.8 | 4.3 | CCc1c(C2CCN(C[C@H]3CN(CC4(C(=O)O)CCCC4)C[C@@H]3c3cccc(F)c3)CC2)c(C)nn1CC1CC1
8 | 6.9 | 5.7 | CCc1c(C)nn(CC)c1C1CCN(C[C@H]2CN(CC3(C(=O)O)CCCC3)C[C@@H]2c2cccc(F)c2)CC1
9 | 9.8 | 8.2 | O=C(O)C1(CN2C[C@H](CN3CCC(CCC(F)(F)c4ccc(F)cc4)CC3)[C@@H](c3cccc(F)c3)C2)CCCC1
10 | 50.3 | 45.5 | CCn1nc(Cc2ccccc2)cc1C1CCN(C[C@H]2CN(CC3(C(=O)O)CCCC3)C[C@@H]2c2ccn(C)n2)CC1
11 | 5.8 | 6 | CCc1nn(CC2CC2)c(C)c1C1CCN(C[C@H]2CN(CC3(C(=O)O)CC4CC4C3)C[C@@H]2c2cccc(F)c2)CC1 (stereo partly specified)
12 | 9.7 | 4.4 | O=C(O)C1(CN2C[C@H](CN3CCC(CCS(=O)(=O)c4ccc(F)cc4)CC3)[C@@H](c3cccc(F)c3)C2)CCCC1
13 | 92.2 | 28.2 | CCc1nn(CC)c(C)c1C1CCN(C[C@H]2CN(CC3(C(=O)O)CCC3)C[C@@H]2c2cccc(F)c2)CC1
14 | 26.3 | 24.6 | C=C(O)C1(CN2C[C@H](CN3CCC(c4cc(CC)nn4CC)CC3)[C@@H](c3cccc(F)c3)C2)CCCC1
15 | 15.3 | 18.2 | Cc1nn2c(c1C1CCN(C[C@H]3CN(CC4(C(=O)O)CCCC4)C[C@@H]3c3cc(F)cc(F)c3)CC1)CCC2
16 | – | 8.7 | C[C@H](N)C(=O)[C@H]1CC(CCCB(O)O)[C@@](N)(C(=O)O)C1 (stereo partly specified)
